We go through 83 molecules from PubChem BioAssay AID504687 (Sanford-Burnham Center for Chemical Genomics, 2011).

Where “and” joins values, the source holds several entries; their conditions need not be identical. Equal values may be shown once. Calls of active or inactive are those of the source. The rule behind the calls is not given here. A value given as a limit tells only on which side of the number the result lay.

The target in the assay is Ubiquitin-conjugating enzyme E2 N (Homo sapiens) (UniProt P61088). Briefly: UBC13 polyubiquitin chain formation inhibitors, SAR follow-up, biochemical, TR-FRET (AID 504687).
Sequence of Ubiquitin-conjugating enzyme E2 N (Homo sapiens) (P61088 whole entry, looked up): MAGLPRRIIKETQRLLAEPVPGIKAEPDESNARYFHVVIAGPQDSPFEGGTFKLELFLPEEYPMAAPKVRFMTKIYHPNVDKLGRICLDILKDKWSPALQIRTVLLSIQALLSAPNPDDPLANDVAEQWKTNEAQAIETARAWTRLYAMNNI

In general, IC50 refers to the concentration that inhibits the measured activity by half. On to `CC1CCCCN1C(=O)C1CCN(c2ncnc3c2nc2n3CCCCC2)CC1` (stereo not drawn), for which the IC50 entry was “inactive”.

For `O=C(C1CCN(c2ncnc3c2nc2n3CCCCC2)CC1)N1CCN(c2ccccn2)CC1`, the IC50 entry was “inactive”. For `COc1ccc(NC(=O)CCCCCN2C(=O)c3cccc([N+](=O)[O-])c3C2=O)cc1`, the IC50 is > 100 µM (inactive). As for `C=CCc1ccccc1OCC(O)CN1CCN(CCN2C(=O)c3cccc4cccc(c34)C2=O)CC1` (stereo not drawn), the IC50 is 11.7 µM. Next, `COc1cc(/C=C/c2cc[n+](C)cc2)ccc1OCC(=O)Nc1ccc(Cl)c(Cl)c1`: 3.5 µM; `CCOc1cccc2sc(N(CCCN(C)C)C(=O)c3ccc(S(=O)(=O)N(CC)Cc4ccccc4)cc3)nc12`: 6.56 µM. In the case of `O=C(C1CCN(c2ncnc3c2nc2n3CCCCC2)CC1)N1CCN(Cc2ccccc2)CC1`, the IC50 was 6.45 µM. As to `O=C(CCCCCN1C(=O)c2ccccc2C1=O)NCc1ccco1`, the IC50 is 18.1 µM. Next, `COc1cccc(NC(=O)CCCCCN2C(=O)c3cccc([N+](=O)[O-])c3C2=O)c1`: > 100 µM (inactive); `CN(C)CCCN(C(=O)c1ccc(C(=O)c2ccccc2)cc1)c1nc2cc3c(cc2s1)OCCO3`: 1.6 µM; `Cc1ccc(C)c(OCC(O)CN2CCN(CCN3C(=O)c4cccc5cccc(c45)C3=O)CC2)c1` (stereo not drawn): 5.46 µM. Next, `COc1ccc(CCNC(=O)CCCCCN2C(=O)c3ccccc3C2=O)cc1OC`: “inactive”; `COc1cccc(OCC(O)CN2CCN(CCN3C(=O)c4cccc5cccc(c45)C3=O)CC2)c1` (stereo not drawn): 9.98 µM and 9.03 µM.

Take `CCC1CCCCN1CCCNC(=O)C1CCN(c2ncnc3c2nc2n3CCCCC2)CC1` (stereo not drawn): the IC50 was 7.28 µM.

Consider `Cc1ccc(-c2oc3ncnc(N)c3c2-c2ccc(C)cc2)cc1`, for which the IC50 was 2.7 µM. Turning to `Cc1cc(C)c2sc(N(CCCN(C)C)C(=O)c3ccc(S(=O)(=O)N4CCc5ccccc5C4)cc3)nc2c1`, the IC50 was 2.28 µM. Regarding `O=C(CCCCn1c(=O)c2ccccc2n(Cc2ccccc2)c1=O)NC1CCN(Cc2ccccc2)CC1`, the IC50 was 1.63 µM. With `NNC(=O)c1ccc(CN2C(=O)c3cccc4cccc2c34)cc1`, the IC50 was 1.78 µM. As to `CN(C)CCCN(C(=O)c1ccc(C(=O)c2ccccc2)cc1)c1nc2cc3c(cc2s1)OCO3`, the IC50 is 6.57 µM. In the case of `O=C(CCCCCN1C(=O)c2ccccc2C1=O)NCc1ccccn1`, the IC50 result was “inactive”.

With `O=C(CCCCCN1C(=O)c2ccccc2C1=O)NCCc1nc2ccccc2[nH]1`, the IC50 is 10.2 µM. Take `O=C(NCC1CCN(Cc2ccccc2F)CC1)C1CCCN(c2ncnc3c2nc2n3CCCCC2)C1` (stereo not drawn): the half-inhibitory concentration (IC50) is 10.7 µM. In the case of `CN(C)CCCN(C(=O)c1ccc(S(=O)(=O)N2CCCCC2)cc1)c1nc2cc3c(cc2s1)OCO3`, the IC50 was 8.13 µM. For the molecule `CCc1ccc2nc(N(CCCN(C)C)C(=O)c3ccc(S(=O)(=O)N4CCc5ccccc5C4)cc3)sc2c1`, the IC50 is 2.8 µM. On to `Cc1cc(C)cc(OCCNC(=O)CCCCCN2C(=O)c3ccccc3C2=O)c1`, for which the IC50 is > 100 µM (inactive). For the molecule `Cc1nc2ccccc2c(=O)n1NC(=O)c1ccc(OC(F)F)cc1`, the IC50 is 15 µM. `O=C(CCCn1c(=O)c2ccccc2n(Cc2cccc([N+](=O)[O-])c2)c1=O)NC1CCN(Cc2ccccc2)CC1`: the IC50 was 0.34 µM.

With `CN(CCNC(=O)C1CCN(c2ncnc3c2nc2n3CCCCC2)CC1)Cc1ccccc1`, the IC50 was 1.65 µM. As to `O=C(CCCCCN1C(=O)c2cccc3cccc(c23)C1=O)NCc1cccnc1`, the IC50 is 5.08 µM. As to `Cc1cc(NC(=O)Cn2c(=O)n(CCCCC(=O)NC3CCN(Cc4ccccc4)CC3)c(=O)c3ccccc32)n[nH]1`, the IC50 was 12.9 µM. `COc1ccc(COCC(O)CN2CCC(CN3C(=O)c4cccc5cccc(c45)C3=O)CC2)cc1OC` (stereo not drawn): the IC50 is 5.6 µM. As to `Cc1cc(C)c2sc(N(CCCN(C)C)C(=O)c3ccc(S(=O)(=O)N(C)C4CCCCC4)cc3)nc2c1`, the half-inhibitory concentration (IC50) was 7.48 µM.

As for `CN(C)CCCN(C(=O)c1ccc(S(=O)(=O)N(C)Cc2ccccc2)cc1)c1nc2cc3c(cc2s1)OCO3`, the IC50 was 2.53 µM. On to `CC(NC(=O)CCCCCN1C(=O)c2cccc([N+](=O)[O-])c2C1=O)c1ccccc1` (stereo not drawn), for which the IC50 entry is “inactive”.

As to `COc1cc2nc(N(CCCN(C)C)C(=O)c3ccc(S(=O)(=O)N4CCc5ccccc5C4)cc3)sc2cc1OC`, the IC50 is 3.79 µM. Next, `O=C(NCC1CCN(Cc2ccc(Cl)cc2)CC1)C1CCCN(c2ncnc3c2nc2n3CCCCC2)C1` (stereo not drawn): 4.33 µM; `Cc1cc(OCC(O)CN2CCN(CCN3C(=O)c4cccc5cccc(c45)C3=O)CC2)ccc1C(C)C` (stereo not drawn): 9.39 µM. As for `CC1CN(S(=O)(=O)c2ccc(NC(=O)CCCCCN3C(=O)c4ccccc4C3=O)cc2)CC(C)O1` (stereo not drawn), the IC50 entry was “inactive”.

In the case of `CN(C)CCCN(C(=O)c1ccc(S(=O)(=O)N2CCc3ccccc3C2)cc1)c1nc2ccc(F)cc2s1`, the IC50 was 8.1 µM. Next, `O=C(CCCCCN1C(=O)c2cccc([N+](=O)[O-])c2C1=O)NCc1ccccc1`: 16.4 µM; `O=C(NCCCN1CCCCC1)C1CCN(c2ncnc3c2nc2n3CCCCC2)CC1`: 4.58 µM; `O=C(CCCCn1c(=O)c2ccccc2n(Cc2ccccc2F)c1=O)NC1CCN(Cc2ccccc2)CC1`: 2.99 µM. Next, `CCOc1cccc2sc(N(CCCN(C)C)C(=O)c3ccc(S(=O)(=O)N4CCc5ccccc5C4)cc3)nc12`: 4.1 µM; `O=C(c1ccco1)N1CCN(C(=O)C2CCN(c3ncnc4c3nc3n4CCCCC3)CC2)CC1`: “inactive”; `COc1ccc(CCNC(=O)CCCCCN2C(=O)c3ccccc3C2=O)cc1`: “inactive”. For `COc1cccc2sc(N(CCCN(C)C)C(=O)c3ccc(S(=O)(=O)N4CCc5ccccc5C4)cc3)nc12`, the IC50 is 1.85 µM. For the molecule `CC1(C)Cc2c(sc(NC(=O)COc3ccc(Cl)cc3Cl)c2C(N)=O)C(C)(C)N1`, the IC50 was 1.66 µM.

Regarding `Cc1ccc(OCC(O)CN2CCN(CCN3C(=O)c4cccc5cccc(c45)C3=O)CC2)c(C)c1` (stereo not drawn), the IC50 was 4.75 µM. The figure for `COC(=O)C1=C(NC(=O)CCCCCN2C(=O)c3ccccc3C2=O)SC2CCCC12` (stereo not drawn) is > 100 µM (inactive). Regarding `O=C1c2cccc3cccc(c23)C(=O)N1CCN1CCN(CC(O)COc2ccc3ccccc3c2)CC1` (stereo not drawn), the IC50 is 1.35 µM.

Regarding `COc1ccc2sc(N(CCCN(C)C)C(=O)c3ccc(S(=O)(=O)N4CCc5ccccc5C4)cc3)nc2c1`, the IC50 was 5.62 µM. Turning to `COc1ccc(-c2oc3ncnc(N)c3c2-c2ccccc2)cc1`, the IC50 was 2.06 µM. Turning to `CNCc1cc(Br)c(OCC(=O)Nc2ccccc2OC)c(OC)c1`, the IC50 was 6.37 µM. Next, `O=C(C1COc2ccccc2O1)N1CCN(CCN2C(=O)c3cccc4cccc(c34)C2=O)CC1` (stereo not drawn): > 100 µM (inactive); `O=C(C1CCN(c2ncnc3c2nc2n3CCCCC2)CC1)N1CCOCC1`: “inactive”; `CCOc1cccc2sc(N(CCCN(C)C)C(=O)c3ccc(S(=O)(=O)N(C)Cc4ccccc4)cc3)nc12`: 4.3 µM.

For the molecule `CC1CC(C)CN(C(=O)C2CCN(c3ncnc4c3nc3n4CCCCC3)CC2)C1` (stereo not drawn), the IC50 is > 100 µM (inactive). The figure for `O=C(CCCCCN1C(=O)c2ccccc2C1=O)NCc1ccccc1` is 15.8 µM; for `CC(=O)c1ccc(OCC(O)CN2CCN(CCN3C(=O)c4cccc5cccc(c45)C3=O)CC2)cc1` (stereo not drawn) it is 2.28 µM; for `O=C1c2cccc3cccc(c23)C(=O)N1CCN1CCN(CC(O)COc2ccccc2)CC1` (stereo not drawn) it is 17.6 µM. The figure for `CN(C)CCCN(C(=O)c1ccc2c(c1)CCCC2)c1nc2ccc(Cl)cc2s1` is 10.7 µM; for `O=C1c2cccc3cccc(c23)C(=O)N1CC1CCN(CC(O)COc2ccc3ccccc3c2)CC1` (stereo not drawn) it is 3.32 µM.

Regarding `O=C(NCC1CCN(Cc2ccc(F)cc2)CC1)C1CCCN(c2ncnc3c2nc2n3CCCCC2)C1` (stereo not drawn), the IC50 is 3.53 µM. For the molecule `O=C1c2cccc3cccc(c23)N1Cc1ccc(F)cc1`, the IC50 was 3.57 µM. The figure for `O=C(CCCn1c(=O)c2ccccc2n(Cc2ccccc2F)c1=O)NC1CCN(Cc2ccccc2)CC1` is 0.45 µM; for `CCN(Cc1ccccc1)S(=O)(=O)c1ccc(C(=O)N(CCCN(C)C)c2nc3cc(C)cc(C)c3s2)cc1` it is 4.07 µM; for `CCCOC(=O)c1ccc(NC(=O)CCCCCN2C(=O)c3ccccc3C2=O)cc1` it is > 100 µM (inactive). As to `O=C1c2cccc3cccc(c23)C(=O)N1CCN1CCN(CC(O)COc2ccc(C3CCCCC3)cc2)CC1` (stereo not drawn), the IC50 was 6.02 µM. As for `Cc1ccc2nc(N(CCCN(C)C)C(=O)c3ccc4c(c3)CCCC4)sc2c1`, the 50% inhibitory concentration (IC50) is 10.5 µM. As to `O=C(Nc1ccc(F)c(Cl)c1)C1CCN(c2ncnc3c2nc2n3CCCCC2)CC1`, the 50% inhibitory concentration (IC50) was 6.08 µM. The figure for `CN(C)CCCN(C(=O)c1ccc(S(=O)(=O)N2CCCCCC2)cc1)c1nc2ccc(Br)cc2s1` is 5.92 µM; for `CCCCN(CC)S(=O)(=O)c1ccc(C(=O)N(CCCN(C)C)c2nc3cc(C)cc(C)c3s2)cc1` it is 6.23 µM.

`Cc1ccc(C)c(CN2CCC(CNC(=O)C3CCCN(c4ncnc5c4nc4n5CCCCC4)C3)CC2)c1` (stereo not drawn): the IC50 was 3.42 µM. Next, `CCN(Cc1ccccc1)S(=O)(=O)c1ccc(C(=O)N(CCCN(C)C)c2nc3cc4c(cc3s2)OCCO4)cc1`: 1.51 µM; `O=C1c2cccc3cccc(c23)C(=O)N1CCN1CCN(CC(O)COCc2ccc(Cl)cc2)CC1` (stereo not drawn): 1.07 µM. For `O=C(CCCCCN1C(=O)c2ccccc2C1=O)N1CCN(c2ccc([N+](=O)[O-])cc2)CC1`, the IC50 was > 100 µM (inactive). `O=C(NCCCN1CCN(c2ccccc2)CC1)C1CCCN(c2ncnc3c2nc2n3CCCCC2)C1` (stereo not drawn): the IC50 is 4.28 µM. Consider `CC(=O)c1ccccc1OCC(O)CN1CCN(CCN2C(=O)c3cccc4cccc(c34)C2=O)CC1` (stereo not drawn), for which the IC50 was 10.5 µM. Next, `CC(NC(=O)CCCCCN1C(=O)c2ccccc2C1=O)c1nc(-c2ccccc2)no1` (stereo not drawn): 10.6 µM; `CN(C)CCCN(C(=O)c1ccc(S(=O)(=O)N2CCCCCC2)cc1)c1nc2cc3c(cc2s1)OCCO3`: 2.12 µM.

On to `O=C(C1CCN(c2ncnc3c2nc2n3CCCCC2)CC1)N1CCN(c2ccccc2)CC1`, for which the IC50 result was “inactive”. In the case of `Cc1ccccc1OCC(O)CN1CCN(CCN2C(=O)c3cccc4cccc(c34)C2=O)CC1` (stereo not drawn), the IC50 is 12.8 µM.

Take `O=C(NCC1CCN(Cc2cccc(Cl)c2)CC1)C1CCCN(c2ncnc3c2nc2n3CCCCC2)C1` (stereo not drawn): the IC50 was 0.93 µM.
